From US20220323406A1, “METHODS AND COMPOSITIONS FOR DIFFERENTIATING STEM CELLS” (Massachusetts Institute of Technology, priority 2019, published 2022)
Where a name gives a salt, the structure may show the parent alone.

What was measured:
ENR+CD organoids = test: Primary screen: ATP (CellTiter-Glo 3D, CTG) cell number/viability, 2.5-D 384-well ENR+CD organoids; conditions: for Dose.FC.CTG / Z.CTG (standard z score): primary screen;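 on all read-outs here: compounds given at plating and again on day 3 over a 6-day differentiation from ENR+CV stem-cell-enriched precursors, ATP measured on day 6, plate median as control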
[1] = test system: ENR+CD organoids (ISC to Paneth cell differentiation); test: Primary screen: CCh-stimulated lysozyme secretion LYZ.S, 2.5-D 384-well ENR+CD organoid differentiation; type: cell-based, mouse; conditions: primary screen
Text: (§1) High-throughput screening.

[2] = test system: ENR+CD organoids (ISC to Paneth cell differentiation); test: Primary screen: basal (non-stimulated) lysozyme secretion LYZ.NS, 2.5-D 384-well ENR+CD organoid differentiation; type: cell-based, mouse; conditions: primary screen
Text: as §1

| Compound | Dose.FC.CTG (ENR+CD organoids; dose 0.08 uM) [log2 fold change] | Dose.FC.CTG (ENR+CD organoids; dose 0.40 uM) [log2 fold change] | Dose.FC.CTG (ENR+CD organoids; dose 2.00 uM) [log2 fold change] | Dose.FC.CTG (ENR+CD organoids; dose 10.00 uM) [log2 fold change] | Dose.FC.LYZ.S ([1]; dose 0.08 uM) [log2 fold change] | Dose.FC.LYZ.S ([1]; dose 0.40 uM) [log2 fold change] | Dose.FC.LYZ.S ([1]; dose 2.00 uM) [log2 fold change] | Dose.FC.LYZ.S ([1]; dose 10.00 uM) [log2 fold change] | Dose.FC.LYZ.NS ([2]; dose 0.08 uM) [log2 fold change] | Z.LYZ.NS (standard z score) ([2]; dose 0.08 uM) | Dose.FC.LYZ.NS ([2]; dose 0.40 uM) [log2 fold change] | Z.LYZ.NS (standard z score) ([2]; dose 0.40 uM) | Dose.FC.LYZ.NS ([2]; dose 2.00 uM) [log2 fold change] | Z.LYZ.NS (standard z score) ([2]; dose 2.00 uM) | Dose.FC.LYZ.NS ([2]; dose 10.00 uM) [log2 fold change] | Z.LYZ.NS (standard z score) ([2]; dose 10.00 uM) | Z.CTG (standard z score) (ENR+CD organoids; dose 0.08 uM) | Z.CTG (standard z score) (ENR+CD organoids; dose 0.40 uM) | Z.CTG (standard z score) (ENR+CD organoids; dose 2.00 uM) | Z.CTG (standard z score) (ENR+CD organoids; dose 10.00 uM) | further results |
| --- | --- | --- | --- | --- | --- | --- | --- | --- | --- | --- | --- | --- | --- | --- | --- | --- | --- | --- | --- | --- | --- |
| CN(C)CCOc1ccc(/C(=C(/CCCl)c2ccccc2)c2ccccc2)cc1 [Toremifene Citrate] | 0.344 | 0.119 | −1.012 | −1.396 | 0.078 | 0.229 | −0.034 | −0.283 | 0.051 | 0.446 | 0.060 | 0.522 | 0.030 | 0.258 | −0.198 | −1.721 |  |  |  |  |  |
| CC(C)C[C@@H](C(=O)N[C@H](C(=O)OC1CCCC1)c1ccccc1)[C@H](O)C(=O)NO [Tosedostat (CHR2797)] | −0.097 | 0.051 | −0.201 | −0.468 | −0.027 | −0.134 | −0.128 | −0.276 | −0.002 | −0.022 | −0.106 | −0.925 | −0.050 | −0.432 | −0.172 | −1.499 | −0.232 | 0.123 | −0.480 | −1.117 | SSMD.CTG (ENR+CD organoids; Table 5A primary screen, strictly standardized mean difference, four lines per treatment = four doses, dose not given): −0.311 |
| Cn1c(=O)cc(N2CCC[C@@H](N)C2)n(Cc2cc(F)ccc2C#N)c1=O [Trelagliptin] | 0.202 | −0.076 | 0.050 | 0.135 | 0.020 | 0.058 | −0.022 | −0.109 | 0.007 | 0.059 | −0.019 | −0.166 | −0.033 | −0.292 | −0.050 | −0.433 |  |  |  |  |  |
| Nc1nc(N)c2nc(-c3ccccc3)c(N)nc2n1 [Triamterene] | −0.029 | −0.165 | −0.101 | −0.462 | 0.048 | 0.051 | −0.065 | −0.290 | 0.103 | 0.894 | 0.030 | 0.266 | −0.056 | −0.490 | −0.187 | −1.630 |  |  |  |  |  |
| CC(/C=C/C(=O)NO)=C\[C@@H](C)C(=O)c1ccc(N(C)C)cc1 [Trichostatin A (TSA)] | 0.191 | −0.801 | −0.904 | −0.826 | −0.124 | −0.254 | −0.210 | −0.202 | −0.064 | −0.554 | −0.195 | −1.697 | −0.153 | −1.334 | −0.149 | −1.298 | 0.457 | −1.913 | −2.159 | −1.974 |  |
| CCC(COC(=O)c1cc(OC)c(OC)c(OC)c1)(c1ccccc1)N(C)C (stereo not shown) [Trimebutine] | 0.007 | −0.202 | −1.008 | −1.066 | 0.000 | 0.002 | −0.277 | −0.332 | −0.014 | −0.121 | −0.019 | −0.166 | −0.202 | −1.763 | −0.214 | −1.863 |  |  |  |  |  |
| O=C(O[C@H]1C[C@H]2CC[C@@H](C1)[N+]21CCCC1)C(O)(c1ccccc1)c1ccccc1 [Trospium chloride] | 0.083 | −0.031 | 0.200 | 0.148 | 0.119 | 0.117 | −0.008 | 0.084 | 0.169 | 1.470 | 0.218 | 1.895 | −0.002 | −0.017 | 0.102 | 0.885 |  |  |  |  |  |
| CC(C)(C)c1cc(/C=C(\C#N)C(N)=S)cc(C(C)(C)C)c1O [Tyrphostin AG 879] | −0.347 | −0.238 | −0.232 | −0.368 | −0.083 | −0.084 | −0.051 | −0.123 | 0.010 | 0.088 | −0.078 | −0.680 | −0.080 | −0.698 | −0.110 | −0.960 | −0.828 | −0.569 | −0.554 | −0.879 |  |
| CCO.N#CC(=C(/N)Sc1ccccc1N)/C(C#N)=C(\N)Sc1ccccc1N [U0126-EtOH] | −0.350 | −0.514 | −0.476 | −0.790 | 0.114 | 0.075 | −0.071 | −0.165 | 0.099 | 0.859 | 0.019 | 0.163 | −0.045 | −0.389 | −0.117 | −1.021 | −0.835 | −1.227 | −1.138 | −1.887 |  |
| O=C(c1cncc(Br)c1)N1CCC(N2CCCC2)CC1 [UNC669] | −0.095 | 0.096 | −0.235 | 0.073 | 0.047 | −0.029 | 0.025 | 0.002 | 0.066 | 0.578 | −0.006 | −0.048 | 0.070 | 0.606 | 0.029 | 0.249 | −0.226 | 0.228 | −0.561 | 0.174 |  |
